# Measurements from patent US20050009005A1, “Methods of using quantitative lipid metabolome data” (Lipomics Technologies, Inc., priority 2001, published 2005).
# Tested on: de novo fatty acid synthesis
# Assay: Lipid metabolite profile of plasma, heart, liver and inguinal adipose of CL316,243-treated mice (trial 2; Tables 7 and 8)
# Assay type: in vivo
# Settings: for 14:0 / 16:0 / 16:1n7 / 18:0 / 18:1n7 / 18:1n9 / Saturates / Total / Total n7 / Total n9 / Total nMole of FA: mean
# Excerpt: It is understood that the described methods can be used to analyze lipid metabolites from other subjects, including particularly animals other than mice.
# Mouse tissue and plasma samples were a generous donation to Lipomics Technologies, Inc., from Dr. Edward Leiter of the Jackson Laboratory (Bar Harbor, Me.). Samples included the plasma, heart, liver and inguinal adipose of mice treated with pharmaceuticals or their corresponding controls.
# In trial 2, male, inbred NON mice were fed a control with or without the presence of the β-3 adrenergic agonist CL316,243 for four weeks (at 0.001% CL316,243 by weight in the dietary chow).
# In both studies, five treated and five control mice were used. Following the treatments and the killing of the mice, tissues and plasma were taken, chilled to −80 ° C. and shipped to the analysis laboratory at Lipomics Technologies in a frozen state.
# Tissue processing and lipid extraction, including provision of internal standards, was carried out essentially as described in Watkins et al. (J. Lipid Res. Papers in Press, 10.1184/jlf.M200169-JLF200, published August 16, 2002), and in co-owned international application PCT/US02/21426, entitled “GENERATING, VIEWING, INTERPRETING, AND UTILIZING A QUANTITATIVE DATABASE OF METABOLITES,” both of which are incorporated in their entirety herein by reference.
# The separation of lipid classes was performed in some instance by preparative thin-layer chromatography (TLC). To remove any residual metal or other damaging contaminants on the TLC plates, each plate was washed prior to use. Washing the plates is a three-step process that involves impregnating each plate with ethylenediamine tetraacetic acid (EDTA) and rinsing the plates once with methanol and once with chloroform. Each plate is first impregnated with 1 mM EDTA, pH 5.5, by ascending development using the method of Ruiz (J. Lipid Res. 38, 1482-1489, 1997). After each plate was completely developed, it was dried in air overnight. Once dry, each plate was developed in methanol, dried, and developed in chloroform in the same direction as the development with EDTA. The washed plates were then dried in air. Just prior to use, each plate was activated by heating to 110° C. for 10 minutes.
# To prepare the TLC chamber for chromatography, Whatman (Clifton, N.J.) filter paper was cut into 20×80-cm strips and wrapped around the inside wall of a 30×60×10-cm glass development chamber. One hundred milliliters of the appropriate mobile phase was added to the chamber, and the chambers were sealed and allowed to equilibrate. Chambers were considered equilibrated when the solvent front had completely ascended the filter paper. The mobile phase employed for the separation of phospholipid classes (lyso-phospholipids, sphingomyelin, phosphatidylcholine, phosphatidylserine, phosphatidylethanolamine and cardiolipin) was a modification of the solvent system described by Holub and Skeaf (“Nutritional regulation of cellular phosphatidylinositol,” in Methods in Enzymology, ed. Conn, P. M. (Academic Press, Inc., Orlando), pp. 234-243, 1987) consisting of chloroform/methanol/acetic acid/water (100:67:7:4, by volume).
# For the separation of neutral lipid classes (free fatty acids, free sterols, triacylglycerides and cholesterol esters), a solvent system consisting of petroleum ether/diethyl ether/acetic acid (80:20:1, by volume) was used (Mangold, Thin Layer Chromatography—A Laboratory Handbook (Springer-Verlag, New York), 1969).
# After the TLC plate was activated, the sample extracts were spotted onto the activated plate. As a general rule, samples were spotted at an estimated concentration such that no single lipid class was present at more than 25 jig per centimeter of plate width following chromatography. This ensured that the plate was not overloaded and minimized the risk of cross-contamination between lipid classes (cross-contamination is readily identified during sample analysis as each lipid class contains unique internal standards). […]
smiles,measurement,setting,value
"C[C@H](Cc1ccc2c(c1)OC(C(=O)[O-])(C(=O)[O-])O2)NC[C@H](O)c1cccc(Cl)c1.[Na+].[Na+] [CL316,243]",14:0,"Adipose, CE",65.2 nanomoles per gram
same,16:0,"Adipose, CE",326.2 nanomoles per gram
same,16:1n7,"Adipose, CE",85.7 nanomoles per gram
same,18:0,"Adipose, CE",72.1 nanomoles per gram
same,18:1n7,"Adipose, CE",50.6 nanomoles per gram
same,18:1n9,"Adipose, CE",344.4 nanomoles per gram
same,14:0,"Adipose, FFA",833.3 nanomoles per gram
same,16:0,"Adipose, FFA",6822.9 nanomoles per gram
same,16:1n7,"Adipose, FFA",2652.0 nanomoles per gram
same,18:0,"Adipose, FFA",1467.5 nanomoles per gram
same,18:1n7,"Adipose, FFA",864.3 nanomoles per gram
same,18:1n9,"Adipose, FFA",9845.4 nanomoles per gram
same,14:0,"Adipose, PL",74.4 nanomoles per gram
same,16:0,"Adipose, PL",1403.3 nanomoles per gram
same,16:1n7,"Adipose, PL",291.2 nanomoles per gram
same,18:0,"Adipose, PL",1249.1 nanomoles per gram
same,18:1n7,"Adipose, PL",118.1 nanomoles per gram
same,18:1n9,"Adipose, PL",794.7 nanomoles per gram
same,14:0,"Adipose, TAG",79501.6 nanomoles per gram
same,16:0,"Adipose, TAG",666399.1 nanomoles per gram
same,16:1n7,"Adipose, TAG",265948.0 nanomoles per gram
same,18:0,"Adipose, TAG",73800.5 nanomoles per gram
same,18:1n7,"Adipose, TAG",49837.1 nanomoles per gram
same,18:1n9,"Adipose, TAG",793227.6 nanomoles per gram
same,14:0,"Adipose, lipid class CE",4.5 percentage of total fatty acids
same,16:0,"Adipose, lipid class CE",24.4 percentage of total fatty acids
same,16:1n7,"Adipose, lipid class CE",6.8 percentage of total fatty acids
same,18:0,"Adipose, lipid class CE",5.1 percentage of total fatty acids
same,18:1n7,"Adipose, lipid class CE",3.5 percentage of total fatty acids
same,18:1n9,"Adipose, lipid class CE",26.2 percentage of total fatty acids
same,Saturates,"Adipose, lipid class CE",35.7 percentage of total fatty acids
same,Total,"Adipose, lipid class CE",100.0 percentage of total fatty acids
same,Total n7,"Adipose, lipid class CE",10.3 percentage of total fatty acids
same,Total n9,"Adipose, lipid class CE",28.8 percentage of total fatty acids
same,14:0,"Adipose, lipid class FFA",2.6 percentage of total fatty acids
same,16:0,"Adipose, lipid class FFA",21.7 percentage of total fatty acids
same,16:1n7,"Adipose, lipid class FFA",9.2 percentage of total fatty acids
same,18:0,"Adipose, lipid class FFA",6.8 percentage of total fatty acids
same,18:1n7,"Adipose, lipid class FFA",2.8 percentage of total fatty acids
same,18:1n9,"Adipose, lipid class FFA",30.7 percentage of total fatty acids
same,Saturates,"Adipose, lipid class FFA",31.8 percentage of total fatty acids
same,Total,"Adipose, lipid class FFA",100.0 percentage of total fatty acids
same,Total n7,"Adipose, lipid class FFA",12.0 percentage of total fatty acids
same,Total n9,"Adipose, lipid class FFA",31.5 percentage of total fatty acids
same,14:0,"Adipose, lipid class PL",1.4 percentage of total fatty acids
same,16:0,"Adipose, lipid class PL",19.9 percentage of total fatty acids
same,16:1n7,"Adipose, lipid class PL",5.5 percentage of total fatty acids
same,18:0,"Adipose, lipid class PL",16.1 percentage of total fatty acids
same,18:1n7,"Adipose, lipid class PL",1.9 percentage of total fatty acids
same,18:1n9,"Adipose, lipid class PL",14.6 percentage of total fatty acids
same,Saturates,"Adipose, lipid class PL",39.0 percentage of total fatty acids
same,Total,"Adipose, lipid class PL",100.0 percentage of total fatty acids
same,Total n7,"Adipose, lipid class PL",7.4 percentage of total fatty acids
same,Total n9,"Adipose, lipid class PL",15.3 percentage of total fatty acids
same,14:0,"Adipose, lipid class TAG",3.3 percentage of total fatty acids
same,16:0,"Adipose, lipid class TAG",26.9 percentage of total fatty acids
same,16:1n7,"Adipose, lipid class TAG",10.8 percentage of total fatty acids
same,18:0,"Adipose, lipid class TAG",2.9 percentage of total fatty acids
same,18:1n7,"Adipose, lipid class TAG",2.0 percentage of total fatty acids
same,18:1n9,"Adipose, lipid class TAG",31.9 percentage of total fatty acids
same,Saturates,"Adipose, lipid class TAG",33.3 percentage of total fatty acids
same,Total,"Adipose, lipid class TAG",100.0 percentage of total fatty acids
same,Total n7,"Adipose, lipid class TAG",12.9 percentage of total fatty acids
same,Total n9,"Adipose, lipid class TAG",32.2 percentage of total fatty acids
same,lipid concentrations in plasma,"CL316,243 4 weeks vs controls",decreased
same,lipid synthesis in tissues,"CL316,243 4 weeks vs controls (Table 7)",decreased
same,vaccenic acid concentrations in these lipid classes,"CL316,243 4 weeks vs controls, heart, liver, adipose, plasma",typically decreased
same,14:0,"Heart, CE",59.3 nanomoles per gram
same,16:0,"Heart, CE",187.4 nanomoles per gram
same,16:1n7,"Heart, CE",36.2 nanomoles per gram
same,18:0,"Heart, CE",85.3 nanomoles per gram
same,18:1n7,"Heart, CE",19.6 nanomoles per gram
same,18:1n9,"Heart, CE",389.5 nanomoles per gram
same,Saturates,"Heart, CE",366.8 nanomoles per gram
same,Total n7,"Heart, CE",55.8 nanomoles per gram
same,Total n9,"Heart, CE",405.7 nanomoles per gram
same,Total nMole of FA,"Heart, CE",1226.9 nanomoles per gram
same,14:0,"Heart, CL",76.3 nanomoles per gram
same,16:0,"Heart, CL",231.1 nanomoles per gram
same,16:1n7,"Heart, CL",204.0 nanomoles per gram
same,18:0,"Heart, CL",397.1 nanomoles per gram
same,18:1n7,"Heart, CL",381.8 nanomoles per gram
same,18:1n9,"Heart, CL",956.2 nanomoles per gram
same,Saturates,"Heart, CL",776.3 nanomoles per gram
same,Total n7,"Heart, CL",585.8 nanomoles per gram
same,Total n9,"Heart, CL",1011.4 nanomoles per gram
same,Total nMole of FA,"Heart, CL",2975.1 nanomoles per gram
same,14:0,"Heart, FFA",181.4 nanomoles per gram
same,16:0,"Heart, FFA",1012.4 nanomoles per gram
same,16:1n7,"Heart, FFA",156.8 nanomoles per gram
same,18:0,"Heart, FFA",427.8 nanomoles per gram
same,18:1n7,"Heart, FFA",139.4 nanomoles per gram
same,18:1n9,"Heart, FFA",1964.0 nanomoles per gram
same,Saturates,"Heart, FFA",1683.2 nanomoles per gram
same,Total n7,"Heart, FFA",296.1 nanomoles per gram
same,Total n9,"Heart, FFA",2017.6 nanomoles per gram
same,Total nMole of FA,"Heart, FFA",6044.8 nanomoles per gram
same,14:0,"Heart, PC",94.6 nanomoles per gram
same,16:0,"Heart, PC",8127.9 nanomoles per gram
same,16:1n7,"Heart, PC",108.7 nanomoles per gram
same,18:0,"Heart, PC",5235.9 nanomoles per gram
same,18:1n7,"Heart, PC",568.2 nanomoles per gram
same,18:1n9,"Heart, PC",1990.2 nanomoles per gram
same,Saturates,"Heart, PC",13577.6 nanomoles per gram
same,Total n7,"Heart, PC",676.9 nanomoles per gram
same,Total n9,"Heart, PC",2052.1 nanomoles per gram
same,Total nMole of FA,"Heart, PC",15087.3 nanomoles per gram
same,14:0,"Heart, PE",27.5 nanomoles per gram
same,16:0,"Heart, PE",1814.0 nanomoles per gram
same,16:1n7,"Heart, PE",59.6 nanomoles per gram
same,18:0,"Heart, PE",5241.4 nanomoles per gram
same,18:1n7,"Heart, PE",250.5 nanomoles per gram
same,18:1n9,"Heart, PE",934.9 nanomoles per gram
same,14:0,"Heart, PL",170.5 nanomoles per gram
same,16:0,"Heart, PL",10799.7 nanomoles per gram
same,16:1n7,"Heart, PL",344.7 nanomoles per gram
same,18:0,"Heart, PL",13320.8 nanomoles per gram
same,18:1n7,"Heart, PL",1181.0 nanomoles per gram
same,18:1n9,"Heart, PL",4121.5 nanomoles per gram
same,14:0,"Heart, PS/I",33.4 nanomoles per gram
